# Biological target: T1, alpha2B receptor (Homo sapiens, UniProt P18089)
# T1 construct: expressed in transfected cells; host or cells: NIH-3T3
# T1 sequence (P18089 1-450): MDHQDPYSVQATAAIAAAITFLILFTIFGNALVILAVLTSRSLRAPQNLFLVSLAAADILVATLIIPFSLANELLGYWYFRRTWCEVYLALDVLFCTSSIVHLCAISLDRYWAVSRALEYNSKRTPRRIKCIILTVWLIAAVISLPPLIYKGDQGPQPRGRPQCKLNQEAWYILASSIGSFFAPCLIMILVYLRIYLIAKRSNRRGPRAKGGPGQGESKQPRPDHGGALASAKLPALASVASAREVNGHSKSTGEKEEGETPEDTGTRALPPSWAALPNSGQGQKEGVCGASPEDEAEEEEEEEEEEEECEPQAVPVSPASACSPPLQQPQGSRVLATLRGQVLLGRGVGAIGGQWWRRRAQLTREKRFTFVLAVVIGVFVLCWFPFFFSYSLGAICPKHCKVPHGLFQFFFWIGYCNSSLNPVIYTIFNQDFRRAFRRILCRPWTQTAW
# Experiment: Receptor Selection and Amplification Technology (RSAT) assay, alpha2B
# Type: cell-based
# Conditions: not given
# Procedure: (§1) Receptor Selection and Amplification Technology (RSAT) Assay
# (§2) The RSAT assay measures a receptor-mediated loss of contact inhibition that results in selective proliferation of receptor-containing cells in a mixed population of confluent cells. The increase in cell number is assessed with an appropriate transfected marker gene such as β-galactosidase, the activity of which can be easily measured in a 96-well format. Receptors that activate the G protein, Gq, elicit this response. Alpha2 receptors, which normally couple to Gi, activate the RSAT response when coexpressed with a hybrid Gq protein that has a Gi receptor recognition domain, called Gq/i5.
# (§3) NIH-3T3 cells are plated at a density of 2×10^6 cells in 15 cm dishes and maintained in Dulbecco's modified Eagle's medium supplemented with 10% calf serum. One day later, cells are cotransfected by calcium phosphate precipitation with mammalian expression plasmids encoding p-SV-β-galactosidase (5-10 μg), receptor (1-2 μg) and G protein (1-2 μg). 40 μg salmon sperm DNA may also be included in the transfection mixture. Fresh media is added on the following day and 1-2 days later, cells are harvested and frozen in 50 assay aliquots. Cells are thawed and 100 μl added to 100 μl aliquots of various concentrations of drugs in triplicate in 96-well dishes. Incubations continue 72-96 hr at 37° C. After washing with phosphate-buffered saline, β-galactosidase enzyme activity is determined by adding 200 μl of the chromogenic substrate (consisting of 3.5 mM o-nitrophenyl-β-D-galactopyranoside and 0.5% nonidet P-40 in phosphate buffered saline), incubating overnight at 30° C. and measuring optical density at 420 nm. The absorbance is a measure of enzyme activity, which depends on cell number and reflects a receptor-mediated cell proliferation. The efficacy or intrinsic activity is calculated as a ratio of the maximal effect of the drug to the maximal effect of a standard full agonist for each receptor subtype. Brimonidine, also called UK14304, the chemical structure of which is shown below, is used as the standard agonist for the alpha2A, alpha2B and alpha2C receptors. The EC50 is the concentration at which the drug effect is half of its maximal effect.
# The results of the RSAT assay with several exemplary compounds of the invention are disclosed in Table 1 above together with the chemical formulas of these exemplary compounds. EC50 values are nanomolar. NA stands for “not active” at concentrations less than 10 micromolar. IA stands for “intrinsic activity.”
row,Compound,EC50
1,CCC1=CCCCC1NC(=O)NCCF (stereo not shown),45 nM

# Same assay, conditions: RSAT, NIH-3T3 cells cotransfected with receptor and Gq/i5; not active = not active at concentrations less than 10 micromolar
row,Compound,Alpha 2B EC50
1,CCC1=CC(NC(=O)NCCF)CCC1 (stereo not shown),not active

# Same assay, conditions: RSAT, NIH-3T3 cells cotransfected with receptor and Gq/i5; not active = not active at concentrations less than 10 micromolar; read-out: Alpha 2B EC50
row,Compound,EC50
1,CC1Cc2ccccc2C1NC(=O)NCCF (stereo not shown),26.4 nM
2,Cc1c(Cl)ccc2c1C(NC(=O)NCCF)CC2 (stereo not shown),85 nM
3,CCc1cccc2c1CCC2NC(=O)NCCF (stereo not shown),10.6 nM
4,O=C(NCCF)NC1CCc2ccc(F)c(F)c21 (stereo not shown),18.7 nM
5,Cc1c(Br)ccc2c1C(NC(=O)NCCF)CC2 (stereo not shown),238 nM
6,O=C(NCCF)NC1CCCc2occc21 (stereo not shown),90 nM
7,O=C(NCCF)NC1CCCc2sccc21 (stereo not shown),9.6 nM
8,O=C(NCCF)NC1CCc2cccnc21 (stereo not shown),3080 nM
9,CCC1=C(C)C(NC(=O)NCCF)CC1 (stereo not shown),319 nM
10,CC1=CCCCC1NC(=O)NCCF (stereo not shown),74 nM
11,CC1=C(C)C(NC(=O)NCCF)CCC1 (stereo not shown),19.7 nM
12,O=C(NCCF)NC1C=C(CO)CCC1 (stereo not shown),1260 nM
13,CC1=C(C=O)CCCC1NC(=O)NCCF (stereo not shown),2580 nM
14,CC1=CC(NC(=O)NCCF)CCC1 (stereo not shown),225 nM

# Same assay, conditions: ratio of maximal effect of the drug to maximal effect of standard full agonist brimonidine (UK14304)
row,Compound,Alpha 2B IA (intrinsic activity)
1,CC1Cc2ccccc2C1NC(=O)NCCF (stereo not shown),0.85
2,Cc1c(Cl)ccc2c1C(NC(=O)NCCF)CC2 (stereo not shown),0.6
3,CCc1cccc2c1CCC2NC(=O)NCCF (stereo not shown),0.99
4,O=C(NCCF)NC1CCc2ccc(F)c(F)c21 (stereo not shown),0.97
5,Cc1c(Br)ccc2c1C(NC(=O)NCCF)CC2 (stereo not shown),0.37
6,O=C(NCCF)NC1CCCc2occc21 (stereo not shown),0.81
7,O=C(NCCF)NC1CCCc2sccc21 (stereo not shown),0.86
8,O=C(NCCF)NC1CCc2cccnc21 (stereo not shown),0.81
9,CCC1=C(C)C(NC(=O)NCCF)CC1 (stereo not shown),0.88
10,CC1=CCCCC1NC(=O)NCCF (stereo not shown),0.9
11,CCC1=CCCCC1NC(=O)NCCF (stereo not shown),1.22
12,CC1=C(C)C(NC(=O)NCCF)CCC1 (stereo not shown),0.76
13,O=C(NCCF)NC1C=C(CO)CCC1 (stereo not shown),0.58
14,CC1=C(C=O)CCCC1NC(=O)NCCF (stereo not shown),0.81
15,CC1=CC(NC(=O)NCCF)CCC1 (stereo not shown),0.42

# Biological target: T2, alpha2A receptor (Homo sapiens, UniProt P08913)
# T2 construct: expressed in transfected cells; host or cells: NIH-3T3
# T2 sequence (P08913 1-465): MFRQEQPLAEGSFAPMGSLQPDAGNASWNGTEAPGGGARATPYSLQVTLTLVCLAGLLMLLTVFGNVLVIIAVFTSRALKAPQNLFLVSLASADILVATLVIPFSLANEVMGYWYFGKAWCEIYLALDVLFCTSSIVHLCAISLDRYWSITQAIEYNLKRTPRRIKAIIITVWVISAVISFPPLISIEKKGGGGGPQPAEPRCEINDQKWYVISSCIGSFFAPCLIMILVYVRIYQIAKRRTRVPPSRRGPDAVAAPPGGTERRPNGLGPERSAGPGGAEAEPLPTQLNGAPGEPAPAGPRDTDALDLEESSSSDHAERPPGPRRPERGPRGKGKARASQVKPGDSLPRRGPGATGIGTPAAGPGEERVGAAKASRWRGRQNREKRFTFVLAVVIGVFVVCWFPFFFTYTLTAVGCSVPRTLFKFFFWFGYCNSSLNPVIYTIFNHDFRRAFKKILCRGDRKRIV
# Experiment: Receptor Selection and Amplification Technology (RSAT) assay, alpha2A
# Type: cell-based
# Conditions: not given
# Procedure: as §1, §2, §3
# (§4) EC50 values are nanomolar. NA stands for “not active” at concentrations less than 10 micromolar. IA stands for “intrinsic activity.”
row,Compound,EC50
1,CCC1=CCCCC1NC(=O)NCCF (stereo not shown),184 nM

# Same assay, conditions: RSAT, NIH-3T3 cells cotransfected with receptor and Gq/i5; not active = not active at concentrations less than 10 micromolar
row,Compound,Alpha 2A EC50
1,CC1Cc2ccccc2C1NC(=O)NCCF (stereo not shown),not active
2,Cc1c(Cl)ccc2c1C(NC(=O)NCCF)CC2 (stereo not shown),not active
3,CCc1cccc2c1CCC2NC(=O)NCCF (stereo not shown),not active
4,O=C(NCCF)NC1CCc2ccc(F)c(F)c21 (stereo not shown),not active
5,Cc1c(Br)ccc2c1C(NC(=O)NCCF)CC2 (stereo not shown),not active
6,O=C(NCCF)NC1CCCc2occc21 (stereo not shown),not active
7,O=C(NCCF)NC1CCCc2sccc21 (stereo not shown),not active
8,O=C(NCCF)NC1CCc2cccnc21 (stereo not shown),not active
9,CCC1=C(C)C(NC(=O)NCCF)CC1 (stereo not shown),not active
10,CC1=CCCCC1NC(=O)NCCF (stereo not shown),not active
11,CC1=C(C)C(NC(=O)NCCF)CCC1 (stereo not shown),not active
12,O=C(NCCF)NC1C=C(CO)CCC1 (stereo not shown),not active
13,CC1=C(C=O)CCCC1NC(=O)NCCF (stereo not shown),not active
14,CC1=CC(NC(=O)NCCF)CCC1 (stereo not shown),not active
15,CCC1=CC(NC(=O)NCCF)CCC1 (stereo not shown),not active

# Same assay, conditions: ratio of maximal effect of the drug to maximal effect of standard full agonist brimonidine (UK14304)
row,Compound,Alpha 2A IA (intrinsic activity)
1,CCC1=CCCCC1NC(=O)NCCF (stereo not shown),0.64

# Biological target: T3, alpha2C receptor (Homo sapiens, UniProt P18825)
# T3 construct: expressed in transfected cells; host or cells: NIH-3T3
# T3 sequence (P18825 1-462): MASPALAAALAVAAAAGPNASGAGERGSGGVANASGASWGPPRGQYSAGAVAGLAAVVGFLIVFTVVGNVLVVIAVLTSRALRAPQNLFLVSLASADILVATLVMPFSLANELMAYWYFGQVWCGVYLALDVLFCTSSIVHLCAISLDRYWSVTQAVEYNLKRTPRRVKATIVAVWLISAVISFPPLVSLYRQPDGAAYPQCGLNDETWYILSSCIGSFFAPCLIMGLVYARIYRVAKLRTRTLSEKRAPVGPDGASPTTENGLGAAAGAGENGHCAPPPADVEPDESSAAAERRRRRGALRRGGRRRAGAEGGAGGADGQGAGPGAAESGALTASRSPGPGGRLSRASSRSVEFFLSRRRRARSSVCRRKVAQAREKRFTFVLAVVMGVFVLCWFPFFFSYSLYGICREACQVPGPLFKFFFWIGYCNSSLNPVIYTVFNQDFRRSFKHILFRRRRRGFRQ
# Experiment: Receptor Selection and Amplification Technology (RSAT) assay, alpha2C
# Type: cell-based
# Conditions: not given
# Procedure: as §1, §2, §3, §4
row,Compound,EC50
1,CCC1=CCCCC1NC(=O)NCCF (stereo not shown),348 nM

# Same assay, conditions: RSAT, NIH-3T3 cells cotransfected with receptor and Gq/i5; not active = not active at concentrations less than 10 micromolar
row,Compound,Alpha 2C EC50
1,CC1Cc2ccccc2C1NC(=O)NCCF (stereo not shown),not active
2,Cc1c(Cl)ccc2c1C(NC(=O)NCCF)CC2 (stereo not shown),not active
3,Cc1c(Br)ccc2c1C(NC(=O)NCCF)CC2 (stereo not shown),not active
4,O=C(NCCF)NC1CCc2cccnc21 (stereo not shown),not active

# Same assay, conditions: RSAT, NIH-3T3 cells cotransfected with receptor and Gq/i5; not active = not active at concentrations less than 10 micromolar; read-out: Alpha 2C EC50
row,Compound,EC50
1,CCc1cccc2c1CCC2NC(=O)NCCF (stereo not shown),103 nM
2,O=C(NCCF)NC1CCc2ccc(F)c(F)c21 (stereo not shown),117 nM
3,O=C(NCCF)NC1CCCc2occc21 (stereo not shown),453 nM
4,O=C(NCCF)NC1CCCc2sccc21 (stereo not shown),40 nM
5,CCC1=C(C)C(NC(=O)NCCF)CC1 (stereo not shown),886 nM
6,CC1=CCCCC1NC(=O)NCCF (stereo not shown),453 nM
7,CC1=C(C)C(NC(=O)NCCF)CCC1 (stereo not shown),513 nM
8,O=C(NCCF)NC1C=C(CO)CCC1 (stereo not shown),2600 nM
9,CC1=C(C=O)CCCC1NC(=O)NCCF (stereo not shown),3620 nM
10,CC1=CC(NC(=O)NCCF)CCC1 (stereo not shown),520 nM
11,CCC1=CC(NC(=O)NCCF)CCC1 (stereo not shown),346 nM

# Same assay, conditions: ratio of maximal effect of the drug to maximal effect of standard full agonist brimonidine (UK14304)
row,Compound,Alpha 2C IA (intrinsic activity)
1,CCc1cccc2c1CCC2NC(=O)NCCF (stereo not shown),0.47
2,O=C(NCCF)NC1CCc2ccc(F)c(F)c21 (stereo not shown),0.53
3,O=C(NCCF)NC1CCCc2occc21 (stereo not shown),0.44
4,O=C(NCCF)NC1CCCc2sccc21 (stereo not shown),0.52
5,CCC1=C(C)C(NC(=O)NCCF)CC1 (stereo not shown),0.37
6,CC1=CCCCC1NC(=O)NCCF (stereo not shown),0.58
7,CCC1=CCCCC1NC(=O)NCCF (stereo not shown),0.59
8,CC1=C(C)C(NC(=O)NCCF)CCC1 (stereo not shown),0.52
9,O=C(NCCF)NC1C=C(CO)CCC1 (stereo not shown),0.4
10,CC1=C(C=O)CCCC1NC(=O)NCCF (stereo not shown),0.32
11,CC1=CC(NC(=O)NCCF)CCC1 (stereo not shown),0.4
12,CCC1=CC(NC(=O)NCCF)CCC1 (stereo not shown),0.32

# From patent US7598417B2, “Substituted fluoroethyl ureas as alpha 2 adrenergic agents” (Allergan, Inc., priority 2007, dated 2009)
